For this data set, the system named is atherosclerosis in Apoe-/- mice. As to the kind of experiment: Atherosclerosis in Apoe-/- mice fed WD. Type of data set: in vivo, mouse. The protocol:
FIGS. 6A-6J depict that IRE1 kinase inhibition alleviates atherosclerosis. (Data are mean±SEM; Mann Whitney U test. * P≤0.05, ** P≤0.01, *** P≤0.001.) • 6A. Atherosclerosis experiment design in Apoe^−/− mice were fed with WD (12 weeks) and injected with vehicle (DMSO) or AMG-18 (30 mg/kg) once a day in the last 4 weeks of WD. • 6B. Lesion area calculated from en face aorta, stained with ORO (n=5; Scale bar=5 mm). • 6C. Total plaque area was calculated from H&E-stained aortic root sections (n=5; Scale bar=300 μm). • 6D. Foam cell area was calculated from ORO-stained aortic root sections (n=5; Scale bar=300 μm). • 6E. Necrotic area was calculated from H&E-stained aortic root sections (n=5; Scale bar=100 μm). • 6F. Atherosclerosis experiment design in Apoe^−/− mice were fed with WD (12 weeks) and injected with vehicle (DMSO) or AMG-18 (30 mg/kg) twice a day in the last 4 weeks of WD. • 6G. Lesion area calculated from en face aorta, stained with ORO (n=6; Scale bar=5 mm). • 6H. Total plaque area was calculated from H&E-stained aortic root sections (n=5; Scale bar=300 μm). • 6I. Foam cell area was calculated from ORO-stained aortic root sections (n=5; Scale bar=300 μm). • 6J. Necrotic area was calculated from H&E-stained aortic root sections (n=5; Scale bar=100 μm).
FIGS. 6K-6T depict: (Data are mean±SEM; Mann Whitney U test. * P≤0.05, ** P≤0.01, *** P≤0.001.) • 6K. The ratio of mouse weight at the beginning of the experiment over the weight at the end of the experiment in FIG. 6A (n=5). • 6L-6N. Plasma measurements for (6L) glucose (n=5) and (6M) cholesterol (n=5) from mice in FIG. 6A. (6N) Abundance of B cells, T cells and monocytes in the peripheral blood as % of total CD45+ cells from the vehicle (DMSO) or AMG-18 (30 mg/kg) once a day injected mice in FIG. 6A (n=5). • 6O. Protein lysates of liver from mice in FIG. 6A. Proteins were analyzed by western blotting using specific antibodies for pIRE1 and β-Actin (n=5). • 6P. The ratio of mouse weight at the beginning of the experiment over the weight at the end of the experiment in FIG. 6F (n=6). • 6Q-6R. Plasma measurements for (6Q) glucose (n=6) and (6R) cholesterol (n=6) from FIG. 6F. • 6S-6T. Protein lysates of (6S) thioglycolate-elicited PM and (6T) liver from mice in FIG. 6F. Proteins were analyzed by western blotting using specific antibodies for pIRE1 and β-Actin (n=6).
Mice studies and treatments: C57BL/6 (WT, Fmr1^+/+), Fmr1^−/− and Apolipoprotein E-deficient (Apoe^−/−) mice were purchased from Jackson Laboratory. IRE1 conditional knock out (Ire1α^flox/flox) mice were a kind gift from Dr. Takao Iwawaki (Kanazawa Medical University, Japan) and characterized before (Iwawaki et al, 2009). […] Fmr1 conditional knock out (Fmr1^flox/flox) mice were a kind gift from dr. David Nelson. Fmr1^flox/flox mice were inter-crossed with LysM^cre mice purchased from Jackson Lab (004781) to obtain myeloid Fmr1-deficient (myFmr1^−/−) mice. Starting at 8 weeks of age, Fmr1^−/−, Fmr1^−/−, myFmr1/or myFmr1^−/− mice were injected with 1×10^10 AAV_PCSK9 (AAV8-D377Y-mPCSK9, Vector BiolabsAAV-268246) via tail vein, then fed with normal chow or high cholesterol/high fat atherosclerotic mouse diet from Envigo (TD.88137) for 6 to 16 weeks. Apoe^−/− mice were fed with WD (12 weeks) and intraperitoneally injected with vehicle (DMSO) or AMG-18 (30 mg/kg) once or twice a day in the last 4 weeks of WD. C57BL/6 were injected with Tunicamycin (TM, 1 mg/kg) and with AMG-18 (30 mg/kg) or vehicle (DMSO) in 20% vol/vol Cremophor EL saline solution. 8 hours later peritoneal macrophages were isolated by thioglycolate elicitation for further analysis. Mice were kept under specific pathogen-free conditions with food and water ad libititum. Both female and male mice were used for experiments. […]

Where [1] appears, read: 30 mg/kg once daily, last 4 weeks of 12 weeks WD.
Where [2] appears, read: 30 mg/kg twice daily, last 4 weeks of 12 weeks WD.

With `Cc1ccc2c(NS(=O)(=O)c3ccccc3Cl)cccc2c1Oc1ncccc1-c1ccnc(N[C@H]2CCCNC2)n1` [AMG-18], under setting [1], the “aortic root lesion area” value was “not different”, the “atherosclerotic lesions in en face aorta preparations” value is listed as “decrease”, the body weight entry is recorded as “no significant differences” and the foam cell area entry is listed as “significantly decreased”. Besides, under setting [1], the necrotic core area result is “significantly decreased” and the “number of circulating immune cells” value is recorded as “no significant differences”. Moreover, the “IRE1 autophosphorylation (target engagement)” value (30 mg/kg once daily, liver lysates) is “reduced”. Besides, under setting [2], the “aortic root lesion area” value is “did not alter”, the “atherosclerotic lesions in en face aorta preparations” value is “significant decrease”, the body weight ratio result was “decrease” and the foam cell area entry is reported as “significantly decreased”. Further, the necrotic core area entry under setting [2] is reported as “significantly decreased”. For the same compound, the “IRE1 autophosphorylation (target engagement)” value (30 mg/kg twice daily, PM and liver lysates) is “reduced”.

The values are drawn from patent US20250134889A1, “TARGETING IRE1 KINASE AND FMRP FOR PROPHYLAXIS, MANAGEMENT AND TREATMENT OF ATHEROSCLEROSIS” (CEDARS-SINAI MEDICAL CENTER, priority 2022, published 2025).
